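Following 48 hours of exposure in 96-well plates, responses at five concentrations were used to interpolate endpoints linearly. GI50: concentration for 50% inhibition of growth.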 The source made the active and inactive calls. No stated cut-off is given here; in the data, active = GI50 up to about 1.1 µM and inactive = higher. Square brackets hold non-standard residues; d marks the D form. Peptide text beside a SMILES is read from it. * marks the point of attachment. ξ: configuration not given here. NMeN = CN[C@@H](CC(N)=O)C(=O)O; NMeV = CN[C@H](C(=O)O)C(C)C; ξNMeV = CNC(C(=O)O)C(C)C; Boc = CC(C)(C)OC(=O)*; ξNMeA = CNC(C)C(=O)O

Test systems include LOX IMVI; HL-60; NCI/ADR-RES; SK-MEL-2; UACC-62; OVCAR-5; TK-10; MCF7; ACHN; T47D; NCI-H460; HOP-62; SF-268; OVCAR-8; SN12C; NCI-H226; RPMI-8226; NCI-H23; UACC-257; MDA-N.
Holding throughout (test): growth of human tumour cells (NCI), 48 h

With `Cn1c(=O)cc(NNc2ccc(Cl)c(Cl)c2)[nH]c1=O`, the GI50 in the assay with LOX IMVI is 12.2 µM (inactive); with HL-60 it was 8 µM (inactive); in the assay with NCI/ADR-RES, 13.3 µM (inactive); in the assay with SK-MEL-2 it was 16.4 µM (inactive); with UACC-62, 1.71 µM (inactive); with OVCAR-5, 14.4 µM (inactive). For the same compound, the GI50 in the assay with TK-10 is 16.7 µM (inactive); in the assay on MCF7 it was 6.41 µM (inactive); in the assay on ACHN, 5.46 µM (inactive); with T47D, 4.99 µM (inactive); with NCI-H460, 4.86 µM (inactive); in the assay on HOP-62 it was 16.4 µM (inactive). Further, the GI50 in the assay on SF-268 is 27.9 µM (inactive); with OVCAR-8 it was 13.6 µM (inactive); in the assay on SN12C it was 4.34 µM (inactive); in the assay with NCI-H226 it was 19.5 µM (inactive); in the assay on RPMI-8226 it was > 10 µM (inactive); in the assay on NCI-H23, 29.2 µM (inactive). The GI50 in the assay with UACC-257 was 14.9 µM (inactive); with MDA-N, 9.06 µM (inactive).

In the case of `C[n+]1c(/C=C/c2ccc(O)c3ncccc23)[se]c2ccccc21`, the GI50 with LOX IMVI is 2.33 µM (inactive); in the assay on HL-60, 2.55 µM (inactive); with NCI/ADR-RES it was 3.48 µM (inactive); in the assay on SK-MEL-2, 4.26 µM (inactive); with UACC-62, 3.14 µM (inactive); with OVCAR-5, 9.86 µM (inactive). The GI50 was 3.1 µM (inactive) in the assay on TK-10; 1.58 µM (inactive) in the assay on MCF7; 1.92 µM (inactive) with ACHN; 3.2 µM (inactive) in the assay with T47D; 2.51 µM (inactive) with NCI-H460; 3.3 µM (inactive) in the assay with HOP-62. For the same compound, the GI50 in the assay on SF-268 was 4.91 µM (inactive); in the assay with OVCAR-8, 2.87 µM (inactive); in the assay with SN12C it was 2.99 µM (inactive); in the assay on NCI-H226, 11.5 µM (inactive); in the assay on RPMI-8226, 5.01 µM (inactive); in the assay on NCI-H23, 4.05 µM (inactive). Also, the GI50 in the assay on UACC-257 is 2.29 µM (inactive); in the assay on MDA-N it was 5.98 µM (inactive).

In the case of `NCCCN1CCN(CC(=O)O)CCN(CCCN)CCN(CC(=O)O)CC1`, the GI50 is > 100 µM (inactive) with LOX IMVI; 15.3 µM (inactive) in the assay with HL-60; > 100 µM (inactive) in the assay with NCI/ADR-RES; > 33.3 µM (inactive) in the assay on SK-MEL-2; > 56.9 µM (inactive) in the assay on UACC-62; > 38.9 µM (inactive) in the assay with OVCAR-5. Also, the GI50 in the assay on TK-10 was > 100 µM (inactive); with MCF7, 44.1 µM (inactive); in the assay on ACHN, > 100 µM (inactive); in the assay on T47D, > 100 µM (inactive); in the assay on NCI-H460, 6.75 µM (inactive); in the assay with HOP-62, > 100 µM (inactive). For the same compound, the GI50 in the assay on SF-268 is > 100 µM (inactive); with OVCAR-8, > 86.1 µM (inactive); in the assay on SN12C, > 100 µM (inactive); in the assay on NCI-H226, > 100 µM (inactive); in the assay with RPMI-8226, 17.4 µM (inactive); with NCI-H23, > 100 µM (inactive). In addition, the GI50 is > 100 µM (inactive) in the assay with UACC-257 and > 35.9 µM (inactive) with MDA-N.

As to `COc1cc(CCNC2=CC(=O)c3ncccc3C2=O)ccc1O`, the GI50 with LOX IMVI is 0.65 µM (active); in the assay on HL-60 it was 3.01 µM (inactive); in the assay with NCI/ADR-RES, 2.93 µM (inactive); with SK-MEL-2 it was 2.53 µM (inactive); with UACC-62 it was 1.96 µM (inactive); with OVCAR-5, 8.91 µM (inactive). Moreover, the GI50 in the assay with TK-10 is 26.9 µM (inactive); in the assay on MCF7, 2.44 µM (inactive); in the assay on ACHN, 4.71 µM (inactive); with T47D, 21.8 µM (inactive); with NCI-H460, 1.02 µM (active); with HOP-62, 2.39 µM (inactive). Besides, the GI50 with SF-268 was 8.11 µM (inactive); with OVCAR-8 it was 2.41 µM (inactive); in the assay on SN12C it was 1.97 µM (inactive); in the assay on NCI-H226 it was 2.7 µM (inactive); with RPMI-8226, 6.76 µM (inactive); in the assay with NCI-H23, 0.828 µM (active). Further, the GI50 was 1.9 µM (inactive) with UACC-257 and 1.37 µM (inactive) with MDA-N.

Turning to `C=C(CCCCCCCCC)CC(=O)SCCNC(=O)CCNC(=O)C(O)C(C)(C)COP(=O)(O)OP(=O)(O)OCC1OC(n2cnc3c(N)ncnc32)C(O)C1OP(=O)(O)O` (stereo not given), the GI50 is 38.3 µM (inactive) in the assay on LOX IMVI; 36.1 µM (inactive) with HL-60; > 100 µM (inactive) in the assay on NCI/ADR-RES; 60.8 µM (inactive) with SK-MEL-2; 21.1 µM (inactive) in the assay on UACC-62; > 100 µM (inactive) with OVCAR-5. Further, the GI50 in the assay on TK-10 is > 100 µM (inactive); in the assay with MCF7, > 87.5 µM (inactive); in the assay on ACHN, > 100 µM (inactive); in the assay with T47D, > 76.9 µM (inactive); in the assay with NCI-H460, 35.4 µM (inactive); with HOP-62 it was 40.9 µM (inactive). The GI50 was 8.73 µM (inactive) in the assay on SF-268; 58.2 µM (inactive) with OVCAR-8; > 84.3 µM (inactive) with SN12C; > 100 µM (inactive) in the assay on NCI-H226; 23.8 µM (inactive) with RPMI-8226; > 100 µM (inactive) in the assay on NCI-H23. In addition, the GI50 with UACC-257 was 48.1 µM (inactive); in the assay with MDA-N, 32.1 µM (inactive).

As for `COC1=CC(=O)C(C2(OC(C)C)OC(=O)C(Cl)=C2Cl)=CC1=O` (stereo not given), the GI50 is 64.1 µM (inactive) in the assay with LOX IMVI; < 0.01 µM (active) in the assay on HL-60; > 100 µM (inactive) in the assay with NCI/ADR-RES; 29.4 µM (inactive) in the assay with SK-MEL-2; > 100 µM (inactive) in the assay with UACC-62; > 100 µM (inactive) in the assay on OVCAR-5. For the same compound, the GI50 in the assay on TK-10 is > 100 µM (inactive); in the assay with MCF7, > 100 µM (inactive); in the assay with ACHN it was 51.4 µM (inactive); in the assay on T47D it was > 100 µM (inactive); with NCI-H460, > 100 µM (inactive); in the assay on HOP-62, > 100 µM (inactive). In addition, the GI50 with SF-268 is > 100 µM (inactive); in the assay on OVCAR-8, 24.9 µM (inactive); with SN12C it was > 100 µM (inactive); in the assay on NCI-H226 it was > 100 µM (inactive); in the assay with RPMI-8226, > 100 µM (inactive); in the assay with NCI-H23, > 100 µM (inactive). The GI50 is > 100 µM (inactive) with UACC-257 and 49.1 µM (inactive) in the assay with MDA-N.

In the case of `COC(=O)C(C)N(C)C(=O)[C@H](CC(N)=O)N(C)C(=O)[C@@H]1CCCN1C(=O)[C@H](C(C)C)N(C)C(=O)C(C(C)C)N(C)C(=O)[C@@H](NC(=O)OC(C)(C)C)C(C)C` (stereo not given in full) (Boc-V[ξNMeV][NMeV]P[NMeN][ξNMeA]-OMe), the GI50 in the assay on LOX IMVI was 23.9 µM (inactive); in the assay on HL-60, 15.1 µM (inactive); in the assay on NCI/ADR-RES it was > 50 µM (inactive); in the assay on SK-MEL-2, > 50 µM (inactive); with UACC-62 it was > 50 µM (inactive); in the assay with OVCAR-5, > 50 µM (inactive). Also, the GI50 in the assay with TK-10, in the assay on MCF7, in the assay on ACHN, in the assay on T47D, in the assay on NCI-H460 and with HOP-62 was > 50 µM (inactive) in each case. The GI50 in the assay on SF-268 was > 100 µM (inactive); with OVCAR-8 it was > 100 µM (inactive); with SN12C it was > 50 µM (inactive); in the assay with NCI-H226 it was > 50 µM (inactive); with RPMI-8226, > 50 µM (inactive); in the assay on NCI-H23, > 50 µM (inactive). Further, the GI50 in the assay on UACC-257 and in the assay on MDA-N was > 50 µM (inactive) each time.

As to `CN(C)Cc1cc(/N=N/c2ccccc2)ccc1O`, the GI50 is 26.7 µM (inactive) in the assay with LOX IMVI; 41.5 µM (inactive) in the assay with HL-60; 24.8 µM (inactive) in the assay with NCI/ADR-RES; 38.9 µM (inactive) in the assay on SK-MEL-2; 24.5 µM (inactive) in the assay on UACC-62; 42.7 µM (inactive) in the assay on OVCAR-5. Besides, the GI50 was 34.6 µM (inactive) with TK-10; 89.1 µM (inactive) in the assay on MCF7; 29 µM (inactive) with ACHN; 44.1 µM (inactive) in the assay with T47D; 40.5 µM (inactive) with NCI-H460; 39.7 µM (inactive) in the assay with HOP-62. Also, the GI50 is 38.8 µM (inactive) in the assay on SF-268; 76.4 µM (inactive) with OVCAR-8; > 100 µM (inactive) with SN12C; 95.9 µM (inactive) in the assay on NCI-H226; 56 µM (inactive) in the assay with RPMI-8226; 98.9 µM (inactive) in the assay on NCI-H23. Also, the GI50 is 25.6 µM (inactive) with UACC-257 and 44 µM (inactive) in the assay with MDA-N.
